# According to US20260125382A1, “COMPOUNDS FOR INHIBITING OR DEGRADING CDK2 AND/OR CDK9 AND MEDICINAL USE THEREOF” (KOREA RESEARCH INSTITUTE OF CHEMICAL TECHNOLOGY, priority 2022, published 2026):
# How the values were obtained:
# CDK2 = biological target: T1, CDK2 (Homo sapiens, UniProt P24941); test: CDK protein degradation activity (Western blotting), CDK2; format: cell-based; conditions: MDA-MB-231 cells, 16 hours, Western blot
# T1 construct: endogenous in cells; host or cells: MDA-MB-231
# Procedure, shortened: (§1)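 CDK2 and CDK9 protein levels measured by Western blot with densitometry, using tubulin as loading reference. Cells were MDA-MB-231, exposed for 16 h to 100 nM, 1 μM or 10 μM compound or to DMSO.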
# CDK9 = biological target: T2, CDK9 (Homo sapiens, UniProt P50750); test: CDK protein degradation activity (Western blotting), CDK9; format: cell-based; conditions: MDA-MB-231 cells, 16 hours, Western blot
# T2 construct: endogenous in cells; host or cells: MDA-MB-231
# Procedure, shortened: as §1
# T2 sequence (P50750 whole entry): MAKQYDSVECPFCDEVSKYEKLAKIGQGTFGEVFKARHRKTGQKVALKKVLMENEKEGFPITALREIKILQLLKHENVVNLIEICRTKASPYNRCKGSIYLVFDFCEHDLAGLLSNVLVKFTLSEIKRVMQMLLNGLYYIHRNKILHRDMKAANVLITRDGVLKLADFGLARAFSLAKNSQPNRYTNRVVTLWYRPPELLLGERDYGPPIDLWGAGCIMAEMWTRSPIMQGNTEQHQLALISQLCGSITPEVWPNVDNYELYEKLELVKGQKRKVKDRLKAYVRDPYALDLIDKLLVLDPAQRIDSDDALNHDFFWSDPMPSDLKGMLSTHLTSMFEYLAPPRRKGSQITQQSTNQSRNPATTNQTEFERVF
Structure (SMILES),Enzyme degradation CDK2 (% remaining) @ 0.1 μM (CDK2),Enzyme degradation CDK2 (% remaining) @ 1 μM (CDK2),Enzyme degradation CDK2 (% remaining) @ 10 μM (CDK2),Enzyme degradation CDK9 (% remaining) @ 0.1 μM (CDK9),Enzyme degradation CDK9 (% remaining) @ 1 μM (CDK9),Enzyme degradation CDK9 (% remaining) @ 10 μM (CDK9)
"O=C1CCN(c2coc3cc(C(=O)N4CCC5(CC4)CC(N4CCN(c6ccc(Nc7ncnc8c7ncn8[C@H]7C[C@@H](NC(=O)Cc8ccccc8)C7)cc6)CC4)C5)ccc23)C(=O)N1 [Compound 191, N-((1s,3s)-3-(6-((4-(4-(7-(3-(2,4-dioxotetrahydropyrimidin-1(2H)-yl)benzofuran-6-carbonyl)-7-azaspiro[3.5]nonan-2-yl)piperazin-1-yl)phenyl)amino)-9H-purin-9-yl)cyclobutyl)-2-phenylacetamide]",0/0/0%,0/0/0%,0/0/0%,0/0/0%,0/0/0%,0/0/0%
"O=C1CC[C@@H](c2cccc(OCC(=O)N3CCC(OCCN4CCN(c5ccc(Nc6ncnc7c6ncn7C6CC(NC(=O)Cc7ccccc7)C6)cc5)CC4)CC3)c2)C(=O)N1 (stereo partly drawn) [Compound 251, N-((1s,3s)-3-(6-((4-(4-(2-((1-(2-(3-(2,6-dioxopiperidin-3-yl)phenoxy)acetyl)piperidin-4-yl)oxy)ethyl)piperazin-1-yl)phenyl)amino)-9H-purin-9-yl)cyclobutyl)-2-phenylacetamide]",0/0/0%,0/0/0%,0/0/0%,30%,0%,0%
"O=C1CC[C@H](N2C(=O)c3ccc(N4CCC(C(=O)N5CCN(CCCC6CCN(c7ccc(Nc8ncnc9c8ncn9[C@H]8C[C@@H](NC(=O)Cc9ccccc9)C8)cc7)CC6)CC5)CC4)cc3C2=O)C(=O)N1 [Compound 367, N-((1s,3s)-3-(6-((4-(4-(3-(4-(1-(2-(2,6-dioxopiperidin-3-yl)-1,3-dioxoisoindolin-5-yl)piperidin-4-carbonyl)piperazin-1-yl)propyl)piperidin-1-yl)phenyl)amino)-9H-purin-9-yl)cyclobutyl)-2-phenylacetamide]",10%,0%,0%,10%,0%,0%
"O=C1CCC(N2C(=O)c3cc(F)c(N4CCC(CN5CCC(CCNc6ncnc7c6ncn7[C@H]6C[C@@H](NC(=O)Cc7ccccc7)C6)CC5)CC4)cc3C2=O)C(=O)N1 (stereo partly drawn) [Compound 409, N-((1s,3s)-3-(6-((2-(1-((1-(2-(2,6-dioxopiperidin-3-yl)-6-fluoro-1,3-dioxoisoindolin-5-yl)piperidin-4-yl)methyl)piperidin-4-yl)ethyl)amino)-9H-purin-9-yl)cyclobutyl)-2-phenylacetamide]",70%,40%,40%,70%,50%,10%
"O=C1CC[C@H](N2C(=O)c3cc(F)c(N4CCC(CCN5CCN(c6ccc(Nc7ncnc8c7ncn8C7CC(NC(=O)c8c(Cl)cccc8Cl)C7)cc6)CC5)CC4)cc3C2=O)C(=O)N1 (stereo partly drawn) [Compound 406, 2,6-dichloro-N-((1s,3s)-3-(6-((4-(4-(2-(1-(2-(2,6-dioxopiperidin-3-yl)-6-fluoro-1,3-dioxoisoindolin-5-yl)piperidin-4-yl)ethyl)piperazin-1-yl)phenyl)amino)-9H-purin-9-yl)cyclobutyl)benzamide]",30/30/30%,30/30/30%,30/30/30%,0/0/0%,0/0/0%,0/0/0%
